Measured values: patent publication US20050014783A1, “Use of Rho-kinase inhibitors in the treatment of aneurysm and cardiac hypertrophy” (Schering Aktiengesellschaft, priority 2003, published 2005)
Marks after values point to notes of the source that are not given here.

Experiments:
Rho-kinase = details: cited from earlier work
[1] = test system: ApoE-KO mice infused with angiotensin II; test: Angiotensin II-induced cardiac hypertrophy in apoE-KO mice; format: in vivo
[2] = test system: ApoE-KO mice infused with angiotensin II; test: Angiotensin II-induced abdominal aortic aneurysm in apoE-KO mice; format: in vivo
Excerpt: Infusion of apoE-KO mice (Jackson Laboratories, Bar Harbor, Me.) with angiotensin II has been reported to lead to the formation of large abdominal aortic aneurysms (Daugherty et al. (2000) J. Clin. Invest. 105:1605-1612). This system can be used as a model system in which to study the effects of the Rho-kinase inhibitors of the present invention on these conditions, using the methods described in Wang et al. (2001) American J. Path. 159:1455-1464. (See Example 1).
(§1) For some parameters measured, comparative data was also collected for C57 Black mice, the mouse strain from which the ApoE-KO mouse is derived.

[3] = test system: supra-renal aortic wall in apoE-KO mice; test: Apoptosis in aortic tissue (TUNEL, cell death detection ELISA, H & E staining); format: in vivo; details: for apoptosis: TUNEL staining, supra-renal aorta, FIG. 2
Procedure: FIG. 3. To further quantify apoptosis in the aortic tissue, cell death detection ELISA assay was performed.

[4] = test system: ApoE-KO mice infused with angiotensin II; test: Blood pressure, heart rate, serum cholesterol, aortic arch lesion area and aortic stiffness in Ang II-infused apoE-KO mice; format: in vivo
Excerpt: as §1

In the case of `O=S(=O)(c1cccc2c(O)nccc12)N1CCCNCC1` [hydroxyfasudil], the “specificity of the inhibitory effect on Rho-kinase” value (Rho-kinase) is given as “more specific inhibitory effect on Rho-kinase”.
For `O=S(=O)(c1cccc2cnccc12)N1CCCNCC1` [Fasudil, Hexahydro-1-(5-isoquinolylsulfonyl)-1H-1,4-diazepine], the “Heart/body Wt” value ([1]; Ang II for 30 days, fasudil in drinking water) was 6.1 ± 0.1, the “Myocyte (mm^2)” value ([1]; cardiomyocyte size, Ang II for 30 days, fasudil in drinking water) was 262 ± 16# mm^2 and the “gene expression of ANP and collagen III” value ([1]; heart of apoE-KO mice) was “normalized”. For the same compound, the “angiotensin-II induced cardiac hypertrophy” value ([1]; measured by heart weight or cardiomyocyte size) was “significantly reduced”, the cardiac function ([1]; mouse, in vivo) was “improved” and the perivascular fibrosis ([1]; mouse, in vivo) was “reduced”. For the same compound, the “decrease in the degree of cardiac hypertrophy” value ([1]; versus Ang II treated ApoE-KO mice, FIG. 4, fasudil 0.5 mg/ml and 1 mg/ml) was 14%, the “Diameter (mm)” value ([2]; Ang II for 30 days, fasudil in drinking water, postmortem direct measurement) was 1.5 ± 0.1 mm and the “Incidence (%)” value ([2]; abdominal aortic aneurysm, Ang II 1.44 mg/kg per day for 30 days, fasudil 1 mg/ml in drinking water) was 41# %. The “incidence of abdominal aortic aneurysm formation” value ([2]; oral, >100 mg/kg daily in drinking water, n=20, p<0.05 vs. controls) was 35%, the “decrease in the size of aneurysms” value ([2]; versus Ang II treated ApoE-KO mice, FIG. 1, fasudil 0.5 mg/ml and 1 mg/ml in drinking water) was 29% and the “aortic wall changes (adventitial fibrosis, inflammation, destruction of smooth muscle cells and elastin)” value ([3]; H & E staining, high dose fasudil, animals with aneurysm) was “ameliorated, but not fully eliminated”. For the same compound, the apoptosis [3] was “reducing apoptosis”, the apoptosis ([3]; listed as fasudil) was “decreased apoptosis” and the “cytosolic DNA fragmentation increased by Ang II” value ([3]; cell death detection ELISA, aortic tissue, P<0.01, FIG. 3) was “abolished”. For the same compound, the “Lesion (%)” value ([4]; aortic arch atherosclerotic lesion area, Ang II for 30 days, fasudil in drinking water) was 25 ± 3%, the “effect on aortic arch atherosclerotic lesion area” value ([4]; mouse, in vivo) was “no effect” and the “effect on aortic stiffness” value ([4]; mouse, in vivo) was “no effect”. For the same compound, the “effect on serum cholesterol” value ([4]; mouse, in vivo) was “no effect”, the “effect on heart rate” value ([4]; tail cuff instrumentation) was “no effect” and the “effect on systolic blood pressure (SBP)” value ([4]; tail cuff instrumentation) was “no effect”.
